Where two headings read alike, the source gives them in different places.

Experimental findings from US20060009524A1, “Methods for producing D-beta-hydroxyamino acids” (priority 2004, published 2006) are described below.

In assay [1] the test system is L-phenylserine aldolase. The assay can be described thus: Substrate specificity of purified L-phenylserine aldolase under the standard assay conditions. As to conditions: compound as substrate; for Relative activity: activity to DL-threo-β-phenyl serine taken as 100, purified enzyme, standard assay conditions.
Assay [2] deals with L-phenylserine aldolase. The assay is described as follows: Effect of cations on the activity of L-phenylserine aldolase. As to conditions: for activation of the enzyme by cation (in words): monovalent or divalent cations. The assay is classed as biochemical, Pseudomonas putida biovar A24-1 strain.
Assay [3] deals with L-phenylserine aldolase. Type of assay: biochemical, Pseudomonas putida biovar A24-1 strain. The note with it: compound as substrate. As to the method: E. coli JM109 strain was transformed with the plasmid pKK-PSA1 obtained in Example 4. The resulting transformant was inoculated to liquid LB medium (Bacto-tryptone 10 g/l, Bacto-yeast extract 5 g/l, sodium chloride 10 g/l; pH 7.2) containing ampicillin (50 mg/l), and cultured at 30° C. overnight. Then, an aliquot of the culture was inoculated to 2×YT medium (Bacto-tryptone 20 g/l, Bacto-yeast extract 10 g/l, sodium chloride 10 g/l; pH 7.2) containing ampicillin (50 mg/l). The bacterial cells were cultured at 30° C., and then the induction was achieved by treating the cells with 0.1 mM IPTG for 4 hours. The bacterial cells were harvested by centrifugation. The cells were suspended in 100 mM TES-NaOH buffer (pH 7.2) containing 0.02% 2-mercaptoethanol, 2 mM EDTA, and 20 μM pyridoxal-5′-phosphate. The cell suspension was sonicated in a closed sonicator UCD-200™ (Cosmo Bio) for 3 minutes to lyse the bacterial cells. The bacterial cell lysate was centrifuged and the resulting supernatant was used as cell-free extract. The activity of L-phenylserine aldolase was assayed using the cell-free extract. The specific activity was confirmed to be 20.0 U/mg.
When the activity to DL-threo-phenyl serine was taken as 100%, the relative activity was estimated to be 31.3%.

The mark [4] stands for this setting: compound 50 mM, preincubated with enzyme at 30° C. for 10 minutes, […].
The mark [5] stands for this setting: compound 0.1 mM, preincubated with enzyme at 30° C. for 10 minutes, […].
Where [6] appears, read: compound 0.1 mM, preincubated with enzyme at 30° C. for 10 minutes, activity in the absence of cation taken as 100.

In the case of `C[C@@H](O)[C@H](N)C(=O)O` [L-threonine], in the assay with L-phenylserine aldolase [1], the “enzymatic activity to the compound (in words)” value (“enzymatic activity … (in words)” below) is recorded as “low enzymatic activity” and the Relative activity amounted to 2.1.

The compound `Cl.N` [Ammonium chloride] yielded a Relative activity in the assay on L-phenylserine aldolase [2] (setting [4]) of 92%.

`N[C@H](CO)C(=O)O` [D-serine] returned a Relative activity in the assay with L-phenylserine aldolase [1] of 0.

`[Cl-].[Cl-].[Mg+2]` [Magnesium chloride] gave a Relative activity in the assay on L-phenylserine aldolase [2] of 98%.

Take `[Cl-].[K+]` [Potassium chloride]: in the assay with L-phenylserine aldolase [2] (setting [4]), the Relative activity worked out at 94%.

Turning to `[Cl][Co][Cl]` [Cobalt chloride], in the assay with L-phenylserine aldolase [2] (setting [5]), the Relative activity is 98%.

In the case of `[Mn+2]` [manganese ion], the “activation of the enzyme by cation (in words)” value (shortened to “activation of the enzyme”) in the assay on L-phenylserine aldolase [2] was “not activated”.

Regarding DL-β-thienyl serine, the Relative activity in the assay with L-phenylserine aldolase [1] came out at 170.

Compound `NCC(O)c1ccccc1` (racemic) [DL-β-hydroxyphenylethylamine] displayed a Relative activity with L-phenylserine aldolase [1] of 0.

Take `N[C@@H](C(=O)O)[C@@H](O)c1ccccc1` [D-threo-phenyl serine]: the “activity to the compound” value with L-phenylserine aldolase [1] is “undetectable”.

In the assay on L-phenylserine aldolase [2] (setting [5]), `[Cl-].[Cl-].[Zn+2]` [Zinc chloride] yielded a Relative activity of 92%.

In the assay with L-phenylserine aldolase [2], `O=S(=O)([O-])[O-].[Cu+2]` [Copper sulfate] came in with a Relative activity of 89%.

For `CCC(O)C(N)C(=O)O` (racemic) [DL-β-hydroxynorvaline], the Relative activity in the assay with L-phenylserine aldolase [1] came to 0.

As for `C[C@@H](O)[C@@H](N)C(=O)O` [D-allo-threonine], the Relative activity in the assay with L-phenylserine aldolase [1] came to 0.

On to `N[C@@H](C(=O)O)[C@H](O)c1ccccc1` [D-erythro-phenyl serine], for which the “activity to the compound” value with L-phenylserine aldolase [1] is reported as “undetectable”.

The compound `N[C@@H](C(=O)O)[C@H](O)C1CCCCC1` (racemic) gave a Relative activity in the assay on L-phenylserine aldolase [3] (activity to DL-threo-phenyl serine taken as 100%) of 31.3%. The “enzymatic activity to the substrate” value with L-phenylserine aldolase [3] (cell-free extract of Example 5) is listed as 6.26 U/mg.

In the assay on L-phenylserine aldolase [1], `N[C@@H](C(=O)O)[C@H](O)c1ccccc1` (racemic) [DL-erythro-β-phenyl serine] showed a Relative activity of 130.

With `N` [ammonium ion], the “activation of the enzyme” value with L-phenylserine aldolase [2] was “not activated”.

Turning to `[Cl-].[Na+]` [Sodium chloride], the Relative activity in the assay with L-phenylserine aldolase [2] (setting [4]) is 88%.

In the case of `N[C@@H](C(=O)O)[C@@H](O)c1ccccc1` (racemic) [DL-threo-β-phenyl serine], the Relative activity with L-phenylserine aldolase [1] was 100.

For the compound `[K+]` [potassium ion], in the assay on L-phenylserine aldolase [2], the “activation of the enzyme” value is recorded as “not activated”.

As for `O=C(O)[C@@H](O)Cc1ccccc1` [L-phenyllactic acid], the Relative activity with L-phenylserine aldolase [1] is listed as 0.

Regarding `N[C@@H](CO)C(=O)O` [L-serine], in the assay with L-phenylserine aldolase [1], the “enzymatic activity … (in words)” value was “almost no activity” and the Relative activity is reported as 0.

As to Manganese chloride, the Relative activity in the assay with L-phenylserine aldolase [2] (setting [6]) is reported as 92%.

In the assay on L-phenylserine aldolase [1], `C[C@H](O)[C@@H](N)C(=O)O` [D-threonine] returned a Relative activity of 0.

On to `C[C@H](O)[C@H](N)C(=O)O` [L-allo-threonine], for which, in the assay with L-phenylserine aldolase [1], the “enzymatic activity … (in words)” value was “low enzymatic activity” and the Relative activity is 8.

Regarding `O=S(=O)([O-])[O-].[Fe+2]` [Ferric (II) sulfate], in the assay on L-phenylserine aldolase [2], the Relative activity is reported as 91%.

For `[Ba+2].[Cl-].[Cl-]` [Barium chloride], in the assay on L-phenylserine aldolase [2] (setting [6]), the Relative activity was found to be 90%.
